Measurements from patent US11465995B2, “Crystal and salt forms of tricyclic compound and preparation process thereof” (SHIJIAZHUANG SAGACITY NEW DRUG DEVELOPMENT COMPANY, LTD., priority 2018, dated 2022).
Values joined by “and” are separate entries in the source; they are usually repeats but may differ in a detail not shown here. Identical values can stand only once. Values belong to the compound of their own block, whether it stands above or below them.

Columns and labels:
[1] = molecular target: T1, S1P1 receptor (Homo sapiens, UniProt P21453); assay: S1P1 receptor agonistic activity test (PathHunter cell line); format: cell-based; conditions: agonist mode
T1 construct: expressed in transfected cells
T1 sequence (P21453 whole entry): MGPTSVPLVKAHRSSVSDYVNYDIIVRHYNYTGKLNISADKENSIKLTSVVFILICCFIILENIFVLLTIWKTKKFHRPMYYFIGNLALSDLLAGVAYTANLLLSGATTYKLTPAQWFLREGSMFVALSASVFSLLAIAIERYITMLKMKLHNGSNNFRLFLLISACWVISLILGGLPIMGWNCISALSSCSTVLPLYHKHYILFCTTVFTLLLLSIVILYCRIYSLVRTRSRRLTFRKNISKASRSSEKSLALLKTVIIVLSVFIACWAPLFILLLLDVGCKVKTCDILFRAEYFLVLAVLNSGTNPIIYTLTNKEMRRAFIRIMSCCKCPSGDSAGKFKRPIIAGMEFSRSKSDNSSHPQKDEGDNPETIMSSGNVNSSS
Method: I. Cells Treatment • 1. PathHunter cell line was thawed according to standard procedures. • 2. The cells were inoculated in 20 μl 384-well microplates and incubated at 37° C. for appropriate time.
II. Agonist • 1. For the agonist assay, the cells were incubated with the testing sample to induce the reaction. • 2. The stock solution had been diluted 5 times with the buffer. • 3. 5 μl of 5-fold dilution was added into the cells, which were incubated at 37° C. for 90-180 min with the vehicle concentration of 1%.
III. Signal Detection • 1. 12.5 μl or 15 μl of PathHunter detection reagent at a volume ratio of 50% was added in one portion, then incubation at room temperature was performed for 1 h to generate detection signal. • 2. The PerkinElmer Envision™ instrument was used to read the microplate for chemiluminescence signal detection.
IV. Data Analysis • 1. CBIS data analysis kit was used to analyze the activity of the compound. • 2. Calculation formula: % Activity=100%×(average RLU of testing sample−average RLU of vehicle)/(average RLU of maximum control ligand−average RLU of vehicle) The results were shown in Table 3.

[2] = Pharmacokinetic evaluation in SD rats; format: in vivo; conditions: Sprague Dawley, rat, plasma, 3 mg/kg, male, intravenous injection and oral administration, Ozanimod at 3 mpk; for bioavailability: read-out: Bioavailability F (%); for AUC: read-out: Concentration Integration AUC; for half-life: read-out: Half-life T1/2 (converted)
Method: This Example is provided to test pharmacokinetics of compounds in SD rats.
Materials: Sprague Dawley rats (male, 200-300 g, 7-9 weeks, Shanghai SLAC)
Procedures: The rodent pharmacokinetic characteristics of the compound after intravenous injection and oral administration were tested according to standard protocol. In the test, the candidate compound was formulated as a clear solution, and the rats were given a single intravenous injection and oral administration. The intravenous and oral vehicles were a hydroxypropyl β cyclodextrin aqueous solution in a certain proportion or normal saline solution. The whole blood sample within 24 h was collected, centrifuged at 3000 g for 15 min, and the supernatant was separated to give the plasma sample. 4 volumes of acetonitrile solution containing internal standard was added to precipitate protein and after centrifugation the supernatant was collected and added with equal volume of water. After further centrifugation, the supernatant was used for injection. Quantitative analysis of blood drug concentration was done by LC-MS/MS analysis method and pharmacokinetic parameters were calculated, such as Cmax, Tmax, clearance, half-life, area under the curve of drug concentration-time, bioavailability, etc.

[3] = test system: blood lymphocytes; assay: Effects of single oral administration on blood lymphocytes in rats; format: in vivo, SD rats; conditions: for Percentage of lymphocytes in white blood cells in a unit volume of blood (%) / Rate of change of lymphocytes in blood after administration (%): mean ± SEM
Method: Normal SPF grade male SD rats were administered by single oral gavage. The experiment contained five groups: the vehicle control group, the reference compound Ozanimod group, Compound 1-0.3 mg/kg dose group, Compound 1-1.0 mg/kg dose group, Compound 1-3 mg/kg dose group. Blood was collected 0.5 h before administration and 4, 8, 24 h after administration, and anticoagulated with 10% K2-EDTA. The anticoagulated blood sample was placed in 4° C. environment, diluted 1:4 with normal saline, and quickly tested with a hematology analyzer to calculate the number of lymphocytes per liter of blood and the percentage in the total white blood cells. Graphpad prism 6.0 software was used to calculate the mean±standard error, and the two-way ANOVA test was used to test the significance of the difference. When p<0.05, there was a significant difference between two groups.

[4] = test system: TNBS-induced acute infectious bowel disease (IBD) model; assay: Pharmacodynamic test on TNBS-induced acute infectious bowel disease (IBD) model in female SD rats; format: in vivo; parameters: Ulcer score / Inflammation score / Total injury score: scale not given here; conditions: for Injury area (cm^2) / Ulcer area (cm^2) / Inflammation score / Total injury score / Ulcer score: mean ± sem; for Inflammation score / Total injury score / Ulcer score: colon pathological test
Method: Female SD rats were divided into 7 groups, that is, model group, prednisolone-10 mg/kg group, Ozanimod-0.3 mg/kg group, Ozanimod-1.0 mg/kg group, Compound 1-0.1 mg/kg group, Compound 1-0.3 mg/kg group, Compound 1-0.6 mg/kg group. All animals were deeply anesthetized with pentobarbital sodium, and TNBS-50% alcohol solution was inserted into the intestinal cavity from the anus for modeling. The animal's anus was squeezed, and the animal was allowed to stand upside down for 5 min. The animals were returned to the cage after assured to be leak free.
The test compounds were administered orally 1 h after modeling, once a day for 7 days. The model group was given an equal volume of drug vehicle. The animals were weighed daily before administration of the test compound and were monitored for daily fecal traits and given clinical observation scores. The day after the last administration, all animals were euthanized. The colons were collected (anal to nodular part), the length and weight of the colons were measured, and the gross anatomical scores of the lesion sizes was taken. The gross anatomical images of the colon lesions were recorded, and the tissues were fixed in 10% neutral formalin solution and were subjected to histopathological analysis.

[5] = Stability test of Crystal Form A solid (accelerated, 40° C./75% humidity, open); format: physicochemical
Method: Crystal Form A was placed in an opening container with constant temperature and humidity for accelerated test, under the conditions of 40° C./75% humidity (open). Samples were taken at 1st, 2nd, 3rd month for testing, and the test results were compared with initial results of day 0.

[6] = 1.0 mg/kg single oral, −0.5 h (before administration)
[7] = 0.1 mg/kg oral once a day for 7 days
[8] = 0.3 mg/kg oral once a day for 7 days
[9] = 0.6 mg/kg oral once a day for 7 days
[10] = 40° C./75% humidity (Open), 1 month
[11] = 40° C./75% humidity (Open), 2 months
[12] = 40° C./75% humidity (Open), 3 months
[13] = 1.0 mg/kg oral once a day for 7 days
[14] = 10 mg/kg oral once a day for 7 days

EC50 [1]: < 0.01 µM
clearance [2]: 11.5 mL/min/kg
bioavailability [2]: 85.8%
AUC [2]: 6.83 µM·h
half-life [2]: 3.46 h
Compound: CC(C)Oc1ccc(-c2nc(-c3cccc4c3C[C@@H]3CC(=O)N(CCO)[C@H]43)no2)cc1C#N (single isomer, unassigned) [Compound 1]
Percentage of lymphocytes in white blood cells in a unit volume of blood (%) ([3]; 0.3 mg/kg single oral, 4 h): 52.08 ± 3.35^&&& %
Rate of change of lymphocytes in blood after administration (%) ([3]; 0.3 mg/kg single oral, 4 h, vs same group before administration): −59.57 ± 2.01 %
maximum decreasing rate of the number of blood lymphocytes ([3]; 0.3 mg/kg single oral, 8 h): 66.87%
Percentage of lymphocytes in white blood cells in a unit volume of blood (%) ([3]; 0.3 mg/kg single oral, 8 h): 46.71 ± 3.72^*#&&&& %
Rate of change of lymphocytes in blood after administration (%) ([3]; 0.3 mg/kg single oral, 8 h): −66.87 ± 1.97 %
blood lymphocyte decreasing rate ([3]; 0.3 mg/kg single oral, 24 h): −44.98%
Percentage of lymphocytes in white blood cells in a unit volume of blood (%) ([3]; 0.3 mg/kg single oral, 24 h): 63.86 ± 1.70%
Rate of change of lymphocytes in blood after administration (%) ([3]; 0.3 mg/kg single oral, 24 h): 44.98 ± 16.62 %
Percentage of lymphocytes in white blood cells in a unit volume of blood (%) ([3]; 0.3 mg/kg single oral, −0.5 h (before administration)): 59.12 ± 2.19%
Percentage of lymphocytes in white blood cells in a unit volume of blood (%) ([3]; 1.0 mg/kg single oral, 4 h): 36.82 ± 2.33^****$$$ %
Rate of change of lymphocytes in blood after administration (%) ([3]; 1.0 mg/kg single oral, 4 h): −71.25 ± 1.93 %
maximum decreasing rate of the number of blood lymphocytes ([3]; 1.0 mg/kg single oral, 8 h): 83.09%
Percentage of lymphocytes in white blood cells in a unit volume of blood (%) ([3]; 1.0 mg/kg single oral, 8 h): 29.89 ± 2.56^****$$$$ %
Rate of change of lymphocytes in blood after administration (%) ([3]; 1.0 mg/kg single oral, 8 h): −83.09 ± 1.25 %
blood lymphocyte decreasing rate ([3]; 1.0 mg/kg single oral, 24 h): 0.22%
Percentage of lymphocytes in white blood cells in a unit volume of blood (%) ([3]; 1.0 mg/kg single oral, 24 h): 61.62 ± 1.61%
Rate of change of lymphocytes in blood after administration (%) ([3]; 1.0 mg/kg single oral, 24 h): −0.22 ± 6.87^**#$$ %
Percentage of lymphocytes in white blood cells in a unit volume of blood (%) [3, 6]: 59.49 ± 1.01%
Percentage of lymphocytes in white blood cells in a unit volume of blood (%) ([3]; 3.0 mg/kg single oral, 4 h): 34.03 ± 3.81^****#$$$$ %
Rate of change of lymphocytes in blood after administration (%) ([3]; 3.0 mg/kg single oral, 4 h): −78.97 ± 0.91 %
maximum decreasing rate of the number of blood lymphocytes ([3]; 3.0 mg/kg single oral, 8 h): 85.92%
Percentage of lymphocytes in white blood cells in a unit volume of blood (%) ([3]; 3.0 mg/kg single oral, 8 h): 26.19 ± 2.81^****$$$$ %
Rate of change of lymphocytes in blood after administration (%) ([3]; 3.0 mg/kg single oral, 8 h): −85.92 ± 1.26 %
blood lymphocyte decreasing rate ([3]; 3.0 mg/kg single oral, 24 h): 55.15%
Percentage of lymphocytes in white blood cells in a unit volume of blood (%) ([3]; 3.0 mg/kg single oral, 24 h): 57.05 ± 2.49%
Rate of change of lymphocytes in blood after administration (%) ([3]; 3.0 mg/kg single oral, 24 h): −55.15 ± 3.32^****$$$$& %
Percentage of lymphocytes in white blood cells in a unit volume of blood (%) ([3]; 3.0 mg/kg single oral, −0.5 h (before administration)): 62.35 ± 2.26%
Injury area (cm^2) [4, 7]: 6.09 ± 0.94 cm^2
Ulcer area (cm^2) [4, 7]: 2.42 ± 0.66 cm^2
Injury area (cm^2) [4, 8]: 5.34 ± 0.90 cm^2
Ulcer area (cm^2) [4, 8]: 2.18 ± 0.84 cm^2
Injury area (cm^2) [4, 9]: 3.42 cm^2 and 3.42 ± 0.73* cm^2
Ulcer area (cm^2) [4, 9]: 0.94 ± 0.55 cm^2
symptoms of colon ulcers and edema (dissection at the end of the experiment) ([4]; 0.6 mg/kg, compared to the model group): reduced compared to the model group
Inflammation score ([4]; 0.1 mg/kg): 3.57 ± 0.20
Total injury score ([4]; 0.1 mg/kg): 6.14 ± 0.40
Ulcer score ([4]; 0.1 mg/kg): 2.57 ± 0.20
Inflammation score ([4]; 0.3 mg/kg): 3.57 ± 0.37
Total injury score ([4]; 0.3 mg/kg): 6.14 ± 0.63
Ulcer score ([4]; 0.3 mg/kg): 2.57 ± 0.30

Appearance [5, 10]: White powder
Content (%) [5, 10]: 101.4%
Total Impurity (%) [5, 10]: 0.31%
Appearance [5, 11]: White powder
Content (%) [5, 11]: 98.8%
Total Impurity (%) [5, 11]: 0.34%
Appearance [5, 12]: White powder
Content (%) [5, 12]: 101.8%
Total Impurity (%) [5, 12]: 0.32%
amount of total impurity (change over the test) ([5]; 40° C./75% humidity (open), up to 3 months vs day 0): did not increase
Appearance ([5]; Initial, 0 month): White powder
Content (%) ([5]; Initial, 0 month): 101.6%
Total Impurity (%) ([5]; Initial, 0 month): 0.33%
Compound: CC(C)Oc1ccc(-c2nc(-c3cccc4c3C[C@@H]3CC(=O)N(CCO)[C@H]43)no2)cc1C#N [Crystal Form A]

clearance [2]: 46.3 mL/min/kg
bioavailability [2]: 41.6%
AUC [2]: 1.12 µM·h
half-life [2]: 5.24 h
Compound: CC(C)Oc1ccc(-c2nc(-c3cccc4c3CC[C@@H]4NCCO)no2)cc1C#N [Ozanimod, reference compound]
Percentage of lymphocytes in white blood cells in a unit volume of blood (%) ([3]; 1.0 mg/kg single oral, 4 h): 44.53 ± 3.75 %
Rate of change of lymphocytes in blood after administration (%) ([3]; 1.0 mg/kg single oral, 4 h): −71.79 ± 2.51 %
maximum decreasing rate of the number of blood lymphocytes ([3]; 1.0 mg/kg single oral, 8 h): 84.39%
Percentage of lymphocytes in white blood cells in a unit volume of blood (%) ([3]; 1.0 mg/kg single oral, 8 h): 35.69 ± 2.47^****$ %
Rate of change of lymphocytes in blood after administration (%) ([3]; 1.0 mg/kg single oral, 8 h): −84.39 ± 1.16 %
blood lymphocyte decreasing rate ([3]; 1.0 mg/kg single oral, 24 h): 47.26%
Percentage of lymphocytes in white blood cells in a unit volume of blood (%) ([3]; 1.0 mg/kg single oral, 24 h): 58.63 ± 2.17%
Rate of change of lymphocytes in blood after administration (%) ([3]; 1.0 mg/kg single oral, 24 h): −47.26 ± 4.34 %
Percentage of lymphocytes in white blood cells in a unit volume of blood (%) [3, 6]: 58.67 ± 1.61%
Injury area (cm^2) [4, 8]: 4.76 ± 0.33 cm^2
Ulcer area (cm^2) [4, 8]: 1.12 ± 0.31 cm^2
Injury area (cm^2) [4, 13]: 4.60 ± 0.71 cm^2
Ulcer area (cm^2) [4, 13]: 1.36 ± 0.48 cm^2
Inflammation score ([4]; 0.3 mg/kg): 3.71 ± 0.42
Total injury score ([4]; 0.3 mg/kg): 6.29 ± 0.75
Ulcer score ([4]; 0.3 mg/kg): 2.57 ± 0.37
Inflammation score ([4]; 1.0 mg/kg): 3.43 ± 0.30
Total injury score ([4]; 1.0 mg/kg): 6.00 ± 0.58
Ulcer score ([4]; 1.0 mg/kg): 2.57 ± 0.30

Compound: C[C@]12C=CC(=O)C=C1CC[C@@H]1[C@@H]2[C@@H](O)C[C@@]2(C)[C@H]1CC[C@]2(O)C(=O)CO [Prednisolone]
Injury area (cm^2) [4, 14]: 4.45 ± 0.82 cm^2
Ulcer area (cm^2) [4, 14]: 1.58 ± 0.53 cm^2
colon ulcers (dissection at the end of the experiment) ([4]; 10 mg/kg, compared to the model group): not reduced
Inflammation score ([4]; 10 mg/kg): 3.00 ± 0.33
Total injury score ([4]; 10 mg/kg): 5.00 ± 0.63
Ulcer score ([4]; 10 mg/kg): 2.00 ± 0.38
